According to patent publication EP0578726B1, “VIRUS INACTIVATION METHOD” (VEGATEC, priority 1991, dated 1992):

What was measured:
[1] = test system: Herpès simplex virus II (HSVII); test: Example I: inactivation of HSVII suspensions, detection in cell culture; assay type: cell-based; conditions: 6,5 g/l of (III)
Description: Herpès simplex virus II (HSVII) est entretenu en culture cellulaire et les suspensions virales obtenues ont une dose infectieuse 50% (DI50) à une dilution de 10⁻⁶.
Les suspensions virales sont mises en contact avec 6,5g/l de (III) pendant 1h, 2h, 4h à 30°C.
Des témoins positifs sont réalisés dans les mêmes conditions d'incubation sans addition de (III).
L'effet virucide de (III) est arrêté par dilution au 1/100e avec du milieu de culture sans virus. La concentration virale atteint alors 10⁴DI50 pour l'effet de dilution.

[2] = test system: Herpès Simplex Virus II (HSV II); test: Example II: kinetics of HSV II inactivation, titration on receptor cells; assay type: cell-based; conditions: after 15 minutes of contact, (III) 5 g/l final concentration
Description: Herpès Simplex Virus II (HSV II) de l'exemple 1 est incubé avec une solution de (III) à 5 g/l en concentration finale dans son milieu de culture.
Des prélèvements sont effectués à intervalles de temps 5, 10, 15, 30 et 60 minutes, puis titrés pour leur contenu en virus infectieux sur cellules réceptrices en culture.

[3] = test system: C 1 estérase; test: Example VIII: inhibitory capacity of treated C 1 Inactivateur towards C 1 estérase; assay type: biochemical; conditions: 6 h - 24°C, (III) at 6,5 g/l, % of inhibitory activity of purified C 1 Inactivateur without additive at To
Description: La protéine a donc été traitée d'une part avec le procédé solvant-détergent, d'autre part avec (III) à une concentration finale de 6,5 g/l pendant 6 h à 24°C, dans le but d'obtenir l'inactivation des virus éventuellement présents dans la matière première.
Le tableau H montre l'influence du traitment d'inactivation virale sur les propriétés inhibitrices du C 1 Ina essayé sur trois enzymes : C 1 estérase, kallicréine, plasmine.
Le témoin est incubé 6 h à 24°C mais ne contient aucun additif inactivant.
L'activité inhibitrice est exprimée en % de l'activité inhibitrice du C 1 Inactivateur purifié sans additif et dosé à To.

CCCCCCCNC(=O)OC[C@H]1O[C@H](OC)[C@H](O)[C@@H](O)[C@@H]1O [(III), 6-O-(N-heptylcarbamoyl)méthyl-α-D-glucopyranoside]
inactivation de HSVII ([1]; 30°C, control titre 10⁴DI50): ≥ 4 log
activité virale de HSVII ([1]; contact 1h, 2h, 4h at 30°C, stopped by 1/100 dilution): Aucune activité virale de HSVII n'est détectée
activité virale de HSVII [2]: Aucune activité virale de HSVII n'est détectée
Activité anti C 1 estérase ([3]; essai n° 1): 96,2%
Activité anti C 1 estérase ([3]; essai n° 2): 100%
